Our source for the EC50 and Ki values is PubChem BioAssay AID2048 (NMMLSC, 2009).

The source made the active and inactive calls.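 How the source made its calls: active means EC50 at most 30 µM plus a dose-response curve spanning at least 25% response; inactive means the rest.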

The assay concerns the target Ras-related C3 botulinum toxin substrate 1 (Homo sapiens) (UniProt P63000). The experiment in a line: activated mutant Rac1 GTP binding inhibitors, SAR follow-up, biochemical, pyrazoline analogs, multiplex bead flow cytometry (AID 2048). As to conditions: Bead-based flow cytometry, Bodipy-FL-GTP binding to GST-Rac1; for Ki: measured here: Ki calculated from EC50.

For the molecule `NS(=O)(=O)c1ccc(N2N=C(c3ccc(Br)cc3)CC2c2ccc(F)cc2)cc1` (configuration not stated), the EC50 result was “inactive”.

In the case of `O=S(=O)(O)c1ccc(N2N=C(c3ccccc3)CC2c2ccccc2)cc1` (configuration not stated), the EC50 result is “inactive”.

`COc1ccc(C2CC(c3ccccc3)=NN2c2ccc(C(N)=O)cc2)cc1` (configuration not stated): the EC50 result was “inactive”. Regarding `COc1ccc(C2CC(c3ccccc3C(F)(F)F)=NN2c2ccc(S(N)(=O)=O)cc2)cc1` (configuration not stated), the EC50 result is “inactive”. On the same count and under the same terms, next, `O=[N+]([O-])c1cccc(C2CC(c3ccccc3)=NN2c2ccccc2)c1` (configuration not stated): “inactive”.

For `Cc1cccc(C2CC(c3ccccc3)=NN2c2ccc(S(N)(=O)=O)cc2)c1` (configuration not stated), the EC50 result was “inactive”. In the case of `Cc1ccccc1C1CC(c2ccccc2)=NN1c1ccc(S(N)(=O)=O)cc1` (configuration not stated), the EC50 entry was “inactive”.

As for `CN(C)c1ccc(C2CC(c3ccc(Br)cc3)=NN2c2ccccc2)cc1` (configuration not stated), the EC50 result was “inactive”. Consider `COc1ccc(-c2cc(-c3ccccc3)nn2-c2ccc(S(N)(=O)=O)cc2)cc1`, for which the EC50 entry is “inactive”.

As for `COc1ccc(C2CC(c3cccc(OC)c3)=NN2c2ccc(S(N)(=O)=O)cc2)cc1` (configuration not stated), the EC50 entry is “inactive”.

As to `CN(C)c1ccc(C2CC(c3ccc(F)cc3)=NN2c2ccccc2)cc1` (configuration not stated), the EC50 result is “inactive”.

Regarding `COc1ccccc1C1CC(c2ccccc2)=NN1c1ccc(S(N)(=O)=O)cc1` (configuration not stated), the EC50 result was “inactive”. Turning to `COc1ccc(C2=NN(c3cccc(F)c3)C(c3ccc(OC)cc3)C2)cc1` (configuration not stated), the EC50 entry is “inactive”. On to `CN(C)c1ccc(C2CC(c3ccccc3)=NN2c2ccc([N+](=O)[O-])cc2)cc1` (configuration not stated), for which the EC50 entry was “inactive”. Still for that read-out and setting: to `COc1ccc(C2CC(c3ccc(F)cc3)=NN2c2ccccc2)cc1OC` (configuration not stated) belongs “inactive”; to `COc1ccc(C2CC(c3ccc(N(C)C)cc3)=NN2c2ccc(S(N)(=O)=O)cc2)cc1` (configuration not stated), “inactive”; to `COc1ccc(C2CC(C3CCCCC3)=NN2c2ccc(S(N)(=O)=O)cc2)cc1` (configuration not stated), “inactive”. In the case of `NS(=O)(=O)c1ccc(N2N=C(c3ccccc3)CC2c2ccc(Cl)cc2)cc1` (configuration not stated), the EC50 result was “inactive”. In the case of `COc1ccc(C2=NN(c3ccccc3)C(c3ccc(OC)c(OC)c3C(=O)O)C2)cc1` (configuration not stated), the EC50 result is “inactive”. `COc1ccc(C2CC(C)=NN2c2ccc(S(N)(=O)=O)cc2)cc1` (configuration not stated): the EC50 result is “inactive” and the Ki (as a rule, a measure of affinity in units of concentration, obtained from inhibition or displacement) was 10 nM. With `COc1ccc(C2=NN(c3ccccc3)C(c3ccccc3C(F)(F)F)C2)cc1` (configuration not stated), the EC50 entry is “inactive”. Same read-out and setting: to `FC(F)(F)c1cccc(N2N=C(c3ccc(Cl)cc3)CC2c2ccccc2Cl)c1` (configuration not stated) belongs “inactive”; to `COc1ccc(C2CC(c3ccc(Br)cc3)=NN2c2ccc(S(N)(=O)=O)cc2)cc1` (configuration not stated), “inactive”. Regarding `COc1ccc(C2CC(c3ccccc3OC)=NN2c2ccc(S(N)(=O)=O)cc2)cc1` (configuration not stated), the EC50 result was “inactive”.

On to `Fc1ccc(C2=NN(c3cccc(Br)c3)C(c3ccccc3)C2)cc1` (configuration not stated), for which the EC50 result is “inactive”.

On to `Brc1ccc(N2N=C(c3ccccc3)CC2c2ccccc2)cc1` (configuration not stated), for which the EC50 result is “inactive”. For `Cc1ccccc1N1N=C(c2ccccc2)CC1c1ccc(N(C)C)cc1` (configuration not stated), the EC50 result was “inactive”. Regarding `CCc1ccc(C2=NN(c3ccc(S(N)(=O)=O)cc3)C(c3ccc(F)cc3)C2)cc1` (configuration not stated), the EC50 result was “inactive”.

Take `COc1ccc(C2CC(c3ccccc3)=NN2c2cccc(S(N)(=O)=O)c2)cc1` (configuration not stated): the EC50 entry is “inactive”. Still for that read-out and setting: next, `COc1ccc(C2CC(c3ccc(Cl)cc3)=NN2c2ccc(S(N)(=O)=O)cc2)cc1` (configuration not stated): “inactive”.

Regarding `CN(C)c1ccc(C2CC(c3ccccc3)=NN2c2ccccc2)cc1` (configuration not stated), the EC50 result is “inactive”. As to `COc1ccc(C2CC(c3ccc(C(F)(F)F)cc3)=NN2c2ccc(S(N)(=O)=O)cc2)cc1` (configuration not stated), the EC50 result was “inactive”.

For the molecule `COc1ccc(C2CC(c3cccc(C)c3)=NN2c2ccc(S(N)(=O)=O)cc2)cc1` (configuration not stated), the EC50 result was “inactive”. For `COc1ccc(C2CC(C(C)(C)C)=NN2c2ccc(S(N)(=O)=O)cc2)cc1` (configuration not stated), the EC50 result was “inactive”.

For the molecule `COc1ccc(C2=NN(c3ccc(S(N)(=O)=O)cc3)C(c3ccc(OC)cc3)C2)cc1` (configuration not stated), the EC50 entry was “inactive”. Consider `O=S(=O)(c1ccc(N2N=C(c3ccc(Br)cc3)CC2c2ccccc2)cc1)C(F)F` (configuration not stated), for which the EC50 result is “inactive” and the Ki was 790 nM. For `NS(=O)(=O)c1ccc(N2N=C(c3ccccc3)CC2c2ccccc2Br)cc1` (configuration not stated), the EC50 entry is “inactive”. The same measure, in the same setting: to `COc1ccc(C2CC(c3ccccc3)=NN2c2ccc(C(=O)O)cc2)cc1` (configuration not stated) belongs “inactive”; to `NS(=O)(=O)c1ccc(N2N=C(c3ccccc3)CC2c2ccccc2Cl)cc1` (configuration not stated), “inactive”; to `COc1ccc(C2CC(c3cccc(C(F)(F)F)c3)=NN2c2ccc(S(N)(=O)=O)cc2)cc1` (configuration not stated), “inactive”.

Take `COc1ccc(C2CC(c3ccccc3)=NN2c2ccc(S(N)(=O)=O)cc2)cc1OC` (configuration not stated): the EC50 result is “inactive”.

With `COc1ccc(C2CC(c3cccc(Br)c3)=NN2c2ccc(S(N)(=O)=O)cc2)cc1` (configuration not stated), the EC50 result was “inactive”. Consider `COc1ccc(C2CC(c3cccc(F)c3)=NN2c2ccc(S(N)(=O)=O)cc2)cc1` (configuration not stated), for which the EC50 result is “inactive”. As for `COc1ccccc1N1N=C(c2ccccc2)CC1c1ccccc1` (configuration not stated), the EC50 result is “inactive”. Consider `COc1ccc(C2=NN(c3ccccc3F)C(c3ccc(F)cc3)C2)cc1` (configuration not stated), for which the EC50 result was “inactive”.

On to `COc1ccc(C2CC(c3ccc(Cl)cc3)=NN2c2ccccc2)cc1OC` (configuration not stated), for which the EC50 entry is “inactive” and the Ki was 10 nM.

In the case of `COc1ccc(C2=NN(c3cccc(F)c3)C(c3ccc(Cl)cc3)C2)cc1` (configuration not stated), the EC50 result was “inactive”. Regarding `COc1ccc(C2=NN(c3ccc(Cl)cc3)C(c3ccccc3F)C2)cc1` (configuration not stated), the EC50 entry is “inactive” and the Ki was 3260 nM. For `COc1ccc(C2CC(c3cccs3)=NN2c2ccc(S(N)(=O)=O)cc2)cc1` (configuration not stated), the EC50 result was “inactive”. The same measure, in the same setting: to `COc1ccc(C2CC(c3ccc(F)cc3)=NN2c2ccc(S(N)(=O)=O)cc2)cc1` (configuration not stated) belongs “inactive”.

For the molecule `COc1ccc(C2CC(c3cccc(N(C)C)c3)=NN2c2ccc(S(N)(=O)=O)cc2)cc1` (configuration not stated), the EC50 entry was “inactive”. In the case of `Clc1ccc(N2N=C(c3ccccc3)CC2c2ccccc2)cc1` (configuration not stated), the EC50 entry was “inactive”. Regarding `Cc1ccc(-c2cc(C(F)(F)F)nn2-c2ccc(S(N)(=O)=O)cc2)cc1`, the EC50 result was “inactive” and the Ki is 3910 nM. Turning to `O=[N+]([O-])c1ccc(N2N=C(c3ccccc3)CC2c2ccccc2)cc1` (configuration not stated), the EC50 result was “inactive”.

Regarding `NS(=O)(=O)c1ccc(N2N=C(c3ccccc3)CC2c2ccc(Br)cc2)cc1` (configuration not stated), the EC50 result is “inactive”. On the same count and under the same terms, next, `COc1cccc(C2CC(c3ccccc3)=NN2c2ccc(S(N)(=O)=O)cc2)c1` (configuration not stated): “inactive”; `COc1ccc(C2CC(c3ccccc3)=NN2c2ccc(Cl)c(C(=O)O)c2)cc1OC` (configuration not stated): “inactive”; `Cc1onc(-c2ccccc2)c1-c1ccc(S(N)(=O)=O)cc1`: “inactive”. Regarding `Fc1ccccc1C1CC(c2ccc(Br)cc2)=NN1c1ccc(Br)cc1` (configuration not stated), the EC50 result was “inactive”. As to `COc1ccc(C2CC(c3ccsc3)=NN2c2ccc(S(N)(=O)=O)cc2)cc1` (configuration not stated), the EC50 entry was “inactive”. Same read-out and setting: next, `COc1ccc(C2CC(c3ccccc3C)=NN2c2ccc(S(N)(=O)=O)cc2)cc1` (configuration not stated): “inactive”; `Cc1ccccc1N1N=C(c2ccccc2)CC1c1cccc([N+](=O)[O-])c1` (configuration not stated): “inactive”. As for `COc1ccc(C2=NN(c3ccccc3)C(c3ccc(Cl)cc3)C2)cc1` (configuration not stated), the EC50 entry was “inactive” and the Ki was 840 nM. In the case of `COc1ccc(C2CC(c3ccccc3Cl)=NN2c2ccc(S(N)(=O)=O)cc2)cc1` (configuration not stated), the EC50 entry was “inactive”. For `COc1ccc(C2=NN(c3ccc(Cl)c(Cl)c3)C(c3ccc(OC)cc3)C2)cc1` (configuration not stated), the EC50 result is “inactive”. On the same count and under the same terms, to `CC(=O)Oc1ccc(C2=NN(c3ccccc3)C(c3ccccc3)C2)cc1` (configuration not stated) belongs “inactive”; to `O=[N+]([O-])c1cccc(C2CC(c3ccc(F)cc3)=NN2c2ccccc2)c1` (configuration not stated), “inactive”; to `O=S(=O)(c1ccc(N2N=C(c3ccccc3)CC2c2ccccc2)cc1)C(F)F` (configuration not stated), “inactive”. The same measure, in the same setting: to `Cc1ccc(C2CC(c3ccccc3)=NN2c2ccc(S(N)(=O)=O)cc2)cc1` (configuration not stated) belongs “inactive”.

On to `NS(=O)(=O)c1ccc(N2N=C(c3ccc(Cl)cc3)CC2c2ccccc2)cc1` (configuration not stated), for which the EC50 result was “inactive”.

Take `NS(=O)(=O)c1ccc(N2N=C(c3ccccc3)CC2c2cccc(Br)c2)cc1` (configuration not stated): the EC50 entry is “inactive”. With `COc1ccc(C2CC(c3ccncc3)=NN2c2ccc(S(N)(=O)=O)cc2)cc1` (configuration not stated), the EC50 result is “inactive”.

On to `COc1ccccc1C1CC(c2ccccc2)=NN1c1ccccc1` (configuration not stated), for which the EC50 result was “inactive”. The same measure, in the same setting: to `NS(=O)(=O)c1ccc(N2N=C(c3ccccc3)CC2c2cccc(Cl)c2)cc1` (configuration not stated) belongs “inactive”. For `FC(F)(F)c1ccccc1C1CC(c2ccc(Br)cc2)=NN1c1ccccc1` (configuration not stated), the EC50 entry is “inactive”.

On to `COc1ccc(C2CC(c3ccccc3)=NN2c2ccc([N+](=O)[O-])cc2)cc1` (configuration not stated), for which the EC50 entry was “inactive”. Regarding `COc1ccc(C2CC(c3ccccc3Br)=NN2c2ccc(S(N)(=O)=O)cc2)cc1` (configuration not stated), the EC50 result was “inactive” and the Ki was 40 nM. On the same counts, the results for `COc1ccc(C2CC(c3ccc(F)cc3)=NN2c2cccc(F)c2)cc1OC` (configuration not stated) are “inactive” and 3030 nM.

Consider `NS(=O)(=O)c1ccc(N2N=C(c3ccccc3)CC2c2ccccc2)cc1` (configuration not stated), for which the EC50 entry is “inactive”. In the case of `COc1ccc(C2CC(c3ccc(Br)cc3)=NN2c2ccccc2Cl)cc1` (configuration not stated), the EC50 entry was “inactive” and the Ki is 60 nM.

As for `O=C(O)c1ccc(N2N=C(c3ccccc3)CC2c2ccccc2)cc1` (configuration not stated), the EC50 entry is “inactive”. For the molecule `COc1ccc(C2CC(c3ccc(C)cc3)=NN2c2ccc(S(N)(=O)=O)cc2)cc1` (configuration not stated), the EC50 entry was “inactive”. As for `COc1ccc(C2CC(c3ccc(F)cc3)=NN2c2cc(Cl)ccc2Cl)cc1` (configuration not stated), the EC50 entry was “inactive”.
